The text below walks through data of PubChem BioAssay (NCI).

Holding throughout (assay): growth of human tumour cells (NCI), 48 h
The subject of test [1] is OVCAR-8 ovarian.
Test [2] has as its system UO-31 renal.
Test [3] relates to SK-MEL-28 melanoma.
Test [4] has as its system UACC-62 melanoma.
The subject of test [5] is NCI/ADR-RES ovarian.
The subject of test [6] is 786-0 renal.
The test system of test [7] is U251 CNS.
In test [8] the test system is COLO 205 colon.
Test [9] concerns LOX IMVI melanoma.
For test [10], the system named is HCT-116 colon.

Where “and” joins values, the source holds several entries; their conditions need not be identical. Equal entries are not always repeated.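 Interpolation was linear, between the two tested concentrations surrounding the appropriate level; five concentrations were tested over 48 hours in 96-well plates. GI50 is the concentration that inhibits growth by half. The concentration for full growth arrest is given as TGI.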

Turning to `COc1cc(/C=C2\C[C@H]3[C@@H]4CC=C5C[C@@H](OC(C)=O)CC[C@]5(C)[C@H]4CC[C@]3(C)[C@H]2OC(C)=O)ccc1OCCN1CCCCC1`, the GI50 is 13 µM in test [1]; 11100 nM in test [2]; 22.5 µM in [3]; 8.14 µM in test [4]; > 50 µM in [5]; 12.3 µM in [6]. In addition, the GI50 in test [7] is 8.76 µM; in [8], 16.3 µM; in test [9], 9.63 µM. The TGI in test [1] was > 50 µM; in test [2], 29.1 µM; in test [3] it was > 50 µM; in test [4], 15 µM; in test [5] it was > 50 µM; in test [6], 21.3 µM. The figures for the TGI in test [7], in test [8] and in test [9] were 16.5 µM, > 50 µM and 18.5 µM, respectively.
On to `COc1cnc2c(c1)C(=O)c1c-2n(CCCNC(C)C)c(=O)c2cc([N+](=O)[O-])ccc12`, for which the GI50 in [1] was 0.0468 µM; in [2], 24.3 nM; in [3], 0.121 µM; in [4] it was 0.0191 µM; in test [5] it was 0.0343 µM; in [6], 0.0351 µM. In addition, the GI50 in test [7] was 0.0303 µM; in test [8] it was 0.0293 µM; in test [9], 0.0189 µM. The TGI in test [1] was determined as 0.541 µM; in test [2], 0.135 µM; in test [3], 0.351 µM; in [4], 0.123 µM; in [5], 0.267 µM; in test [6] it was 0.156 µM. The TGI is 0.158 µM in test [7], 0.225 µM in test [8] and 0.104 µM in test [9].
On to `CSC1(CC(=O)N2CCCCC2)C(=O)Nc2ccccc21` (stereo not drawn), for which the TGI in [2], in test [10], in [3], in [4], in [5] and in test [6] was > 100 µM each time. Besides, the TGI in test [7], in [8] and in test [9] was > 100 µM in each case.
As for `CC(C)c1ccc2nc3ccc(C(=O)NCCN4CCN(c5ccccc5)CC4)cn3c(=O)c2c1`, the TGI in test [1], in test [2], in test [10], in [3], in test [4] and in test [5] was > 100 µM each time. Moreover, the TGI in test [6], in test [7] and in [8] was > 100 µM in each case.
As for `C/C=C/C1=CN2C(=O)c3cc(OC4OC(C)C(NC)C(C)(O)C4O)c(C)c(O)c3N=C[C@@H]2C1` (stereo partly drawn), the TGI in [1] is > 100 µM; in test [10], 11.9 µM; in [5] it was 4.71 µM; in [7] it was 12.5 µM; in [9], 4.06 µM. Also, the GI50 in [2] was 92.6 nM and < 10 nM; in test [4] it was 0.0918 µM and < 0.01 µM; in [6], 0.065 µM; in [7], 0.043 µM and < 0.01 µM; in test [9] it was 0.0619 µM and < 0.01 µM.
With `Cc1c(-c2nnc(-c3cc(Cl)c(Cl)cc3Cl)o2)nnn1-c1ccnc2c(C(F)(F)F)cccc12`, the GI50 in test [2] is 16800 nM; in [10], 17.9 µM; in test [3], 26.5 µM; in [4], 26.5 µM; in test [5], 22.7 µM; in test [6], 33.8 µM. Further, the GI50 was 19.3 µM in test [7], 17.4 µM in [8] and 19.7 µM in [9]. The TGI in [2] was 34.7 µM; in [10], 34.8 µM; in test [3], 75.3 µM; in [4], > 100 µM; in [5], 57.1 µM; in test [6], > 100 µM. Further, the TGI was 37.4 µM in test [7], 33.2 µM in [8] and 38.7 µM in test [9].
For the molecule `COC(C)(C)[C@H](O)C(O)CC(C)[C@@H]1CCC23CC12CCC1[C@@]2(C)CCC(OC(C)=O)C(C)(C)C2CC(OC2OC(COC(C)=O)C(O)C(O)C2O)[C@]13C` (stereo partly drawn), the GI50 in [1] is 6.13 µM; in [10], 4.78 µM; in test [3], 5.41 µM; in test [4] it was 6.28 µM; in test [6] it was 11.5 µM; in [7], 5.3 µM. For the same molecule, the GI50 in test [8] was 2.17 µM; in [9] it was 4.04 µM. The TGI in test [1] was 14 µM and 20.7 µM; in test [2] it was 14.5 µM and 18.6 µM; in test [10], 8.67 µM and 13.4 µM; in test [3] it was 12.2 µM and 18.9 µM; in test [4], 9.47 µM and 19.2 µM; in [6], 15 µM and 25.2 µM. The TGI in test [7] was 9.64 µM and 17.7 µM; in [8] it was 11.3 µM and 4.58 µM; in test [9] it was 9.97 µM and 15.9 µM.
With `COC(=O)C(=O)C(C(=O)OC)C(=O)C(=O)Nc1cc(Cl)c(Cl)cc1Cl` (stereo not drawn), the TGI in [1] was > 100 µM; in test [2], > 100 µM; in [10], 75.8 µM; in test [3], > 100 µM; in test [4], > 100 µM; in test [6], > 100 µM. In addition, the TGI in test [7], in test [8] and in [9] was > 100 µM each time.
